Experimental data reported in patent publication US20220235065A1 (Epizyme, Inc., priority 2016, published 2022).
Where a name gives a salt, the structure may show the parent alone.

What was measured:
[1] = system: H3K9me2 in MDA-MB-231 cells; test: MDA-MB-231 H3K9me2 in-cell western assay; format: cell-based; conditions: Homo sapiens, read-out: EHMT2 ICW (IC50 μM)
Procedure, shortened: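 MDA-MB-231 cells (3,000/well) exposed to compound for two consecutive 48 h periods at 37 °C, then fixed and stained for H3K9me2, with DRAQ5 as DNA stain and infrared read at 700/800 nm. Percent inhibition was set between DMSO and UNC0638 control wells. IC50 came from triplicate dose–response fits with a four-parameter model, top 100%, bottom 0%.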

EHMT1 = target: T1, EHMT1 (Homo sapiens, UniProt Q9H9B1); test: EHMT1 PEP (EHMT1 peptide enzyme assay); format: biochemical; conditions: peptide substrate enzyme assay
T1 sequence (Q9H9B1 1-1298): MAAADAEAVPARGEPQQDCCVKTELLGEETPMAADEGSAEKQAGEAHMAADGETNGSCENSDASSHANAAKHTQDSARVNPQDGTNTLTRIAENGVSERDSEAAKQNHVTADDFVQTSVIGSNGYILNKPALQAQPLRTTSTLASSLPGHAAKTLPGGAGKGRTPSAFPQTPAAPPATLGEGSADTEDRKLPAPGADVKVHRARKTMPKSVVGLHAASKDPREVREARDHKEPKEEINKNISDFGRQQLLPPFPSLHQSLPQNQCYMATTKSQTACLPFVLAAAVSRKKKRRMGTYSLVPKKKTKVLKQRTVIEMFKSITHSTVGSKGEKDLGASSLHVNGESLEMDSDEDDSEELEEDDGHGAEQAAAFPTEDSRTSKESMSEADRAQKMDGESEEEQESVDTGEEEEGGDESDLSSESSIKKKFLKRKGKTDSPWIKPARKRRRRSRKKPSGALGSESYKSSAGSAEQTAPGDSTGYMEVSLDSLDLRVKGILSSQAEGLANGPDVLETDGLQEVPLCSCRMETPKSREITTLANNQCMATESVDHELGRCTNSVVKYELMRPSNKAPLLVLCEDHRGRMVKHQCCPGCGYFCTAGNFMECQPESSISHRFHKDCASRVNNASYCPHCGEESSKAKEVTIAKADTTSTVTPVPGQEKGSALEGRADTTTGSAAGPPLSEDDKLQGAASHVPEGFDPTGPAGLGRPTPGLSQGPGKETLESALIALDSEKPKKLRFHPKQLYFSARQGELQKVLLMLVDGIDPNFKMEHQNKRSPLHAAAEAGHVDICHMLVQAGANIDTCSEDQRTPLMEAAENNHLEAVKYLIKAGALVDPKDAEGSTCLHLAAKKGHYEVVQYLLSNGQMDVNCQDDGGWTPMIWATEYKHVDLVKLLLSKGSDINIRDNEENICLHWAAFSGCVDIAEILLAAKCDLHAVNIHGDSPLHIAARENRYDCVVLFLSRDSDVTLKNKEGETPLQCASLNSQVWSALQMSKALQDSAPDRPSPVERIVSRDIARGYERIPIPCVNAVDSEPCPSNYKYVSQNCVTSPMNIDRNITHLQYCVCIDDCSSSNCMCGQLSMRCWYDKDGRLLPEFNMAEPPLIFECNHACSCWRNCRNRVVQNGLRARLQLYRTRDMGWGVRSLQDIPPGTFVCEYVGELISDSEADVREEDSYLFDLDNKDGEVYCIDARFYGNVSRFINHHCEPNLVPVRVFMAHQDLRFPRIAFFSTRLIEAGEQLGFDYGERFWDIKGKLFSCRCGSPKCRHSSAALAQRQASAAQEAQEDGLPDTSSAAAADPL

Row | IC50 [1] [µM] | IC50 (EHMT1) [µM] | SMILES
1 | 0.1 to 1 | < 0.1 | CNc1cc(C)nc(Nc2ccc(OC)c(-n3cc4c(n3)CCN(C)C4)c2)n1 [Compound 2]
2 | > 10 | 0.1 to 1 | CNc1cc(C)nc(Nc2ccc(OC)c(-n3cc4c(n3)CN(C)CC4)c2)n1 [Compound 3]
3 | 1 to 10 | 1 to 10 | CNc1cc(C)nc(Nc2ccc(OC)c(-n3ccc(CN4CCCC4)n3)c2)n1 [Compound 4, trifluoroacetic acid]
4 | 1 to 10 | 0.1 to 1 | CNc1cc(C)nc(Nc2ccc(OC)c(-n3cc(CN4CCCC4)cn3)c2)n1 [Compound 5, 2-N-[4-methoxy-3-[4-(pyrrolidin-1-ylmethyl)-1H-pyrazol-1-yl]phenyl]-4-N,6-dimethylpyrimidine-2,4-diamine]
5 | > 10 | 1 to 10 | CNc1cc(C)nc(Nc2ccc(OC)c(-n3cc4ccncc4n3)c2)n1 [Compound 41]
6 | > 10 | > 10 | CNc1cc(C)nc(Nc2ccc(OC)c(-c3ccc4cc[nH]c4n3)c2)n1 [Compound 42]
7 | > 10 | 1 to 10 | CNc1cc(C)nc(Nc2ccc(OC)c(-n3cc4c(n3)CCOC4)c2)n1 [Compound 43]
8 | > 10 | 1 to 10 | CNc1cc(C)nc(Nc2ccc(OC)c(-c3nc4cnccc4[nH]3)c2)n1 [Compound 47]
9 | 1 to 10 | < 0.1 | CNc1cc(C)nc(Nc2ccc(OC)c(-c3cc4cnccc4[nH]3)c2)n1 [Compound 48]
10 | > 10 | > 10 | CCn1cc(NC(=O)c2cc(Nc3nc(C)cc(NC)n3)ccc2OC)cn1 [Compound 49]
11 | > 10 | 0.1 to 1 | CNc1cc(C)nc(Nc2cnc(OC)c(-n3cc4c(n3)CCNC4)c2)n1 [Compound 50]
12 | > 10 | 1 to 10 | CNc1cc(C)nc(Nc2ccc(OC)c(-n3cc4c(n3)CCCN4)c2)n1 [Compound 56, N2-(4-methoxy-3-(4,5,6,7-tetrahydro-2H-pyrazolo[4,3-b]pyridin-2-yl)phenyl)-N4,6-dimethylpyrimidine-2,4-diamine hydrochloride]
13 | 1 to 10 | 0.1 to 1 | CNc1cc(C)nc(Nc2cnc(OC)c(-n3cc4c(n3)CCN(C)C4)c2)n1 [Compound 57]
14 | 1 to 10 | 1 to 10 | CNc1cc(C)nc(Nc2cnc(OC)c(-c3nc4cnccn4n3)c2)n1 [Compound 60]
15 | > 10 | 1 to 10 | CNc1cc(C)nc(Nc2ccc(OC)c(-n3cnc(CN(C)C)n3)c2)n1 [Compound 61]
16 | > 10 | 1 to 10 | CNc1cc(C)nc(Nc2cnc(OC)c(-n3cnc(CN(C)C)n3)c2)n1 [Compound 62]
17 | > 10 | 1 to 10 | CNc1cc(C)nc(Nc2cc(-n3cc4c(n3)CCN(C)C4)c(OC)cn2)n1 [Compound 65]
18 | 0.1 to 1 | < 0.1 | CNc1cc(C)nc(Nc2ccc(OC)c(-n3cc(CN(C)C)nn3)c2)n1 [Compound 66]
19 | > 10 | 1 to 10 | CNc1cc(C)nc(Nc2ccc(OC)c(-n3cnc(CN4CCC4)n3)c2)n1 [Compound 67]
20 | > 10 | > 10 | CNc1cc(C)nc(Nc2ccc(OC)c(-n3cnc(CN4CC(F)C4)n3)c2)n1 [Compound 68]
21 | > 10 | > 10 | CNc1cc(C)nc(Nc2ccc(OC)c(-n3cc4c(n3)CCN(C3COC3)C4)c2)n1 [Compound 69]
22 | 1 to 10 | 0.1 to 1 | CCN1CCc2nn(-c3cc(Nc4nc(C)cc(NC)n4)ccc3OC)cc2C1 [Compound 70]
23 | > 10 | 1 to 10 | CNc1cc(C)nc(Nc2ccc(OC)c(-c3nnc(CN(C)C)[nH]3)c2)n1 [Compound 73]
24 | 0.1 to 1 | < 0.1 | CNc1cc(C)nc(Nc2cnc(OC)c(-n3cc(CN(C)C)cn3)c2)n1 [Compound 74]
25 | > 10 | > 10 | CNc1cc(C)nc(Nc2ccc(OC)c(-n3ncc4c3CN(C(C)=O)CC4)c2)n1 [Compound 75]

Row | IC50 [1] [µM] | IC50 (EHMT1) [µM] | SMILES
26 | > 10 | > 10 | CNc1cc(C)nc(Nc2ccc(OC)c(-n3nccc3CNC(C)=O)c2)n1 [Compound 76]
27 | > 10 | > 10 | CNc1cc(C)nc(Nc2ccc(OC)c(-c3nnc4n3CCN(C(=O)OC(C)(C)C)C4)c2)n1 [Compound 77]
28 | > 10 | 1 to 10 | CNc1cc(C)nc(Nc2ccc(OC)c(-c3nc4c([nH]3)CNCC4)c2)n1 [Compound 78]
29 | > 10 | 1 to 10 | CNc1cc(C)nc(Nc2ccc(OC)c(-c3nc4c([nH]3)CN(C)CC4)c2)n1 [Compound 79]
30 | 1 to 10 | 1 to 10 | CNc1cc(C)nc(Nc2ccc(OC)c(-n3cc(C)c4c3CCN(C)C4)c2)n1 [Compound 81]
31 | 1 to 10 | 0.1 to 1 | CNc1cc(C)nc(Nc2ccc(OC)c(-n3cc4c(n3)CCN(C3CC3)C4)c2)n1 [Compound 82]
32 | > 10 | > 10 | COc1ncc(Nc2nc(C)cc(NCC3COC3)n2)cc1-n1cc(CN(C)C)nn1 [Compound 86]
33 | 0.1 to 1 | < 0.1 | CNC(=O)CCNc1cc(C)nc(Nc2ccc(OC)c(-n3cc4c(n3)CCN(C)C4)c2)n1 [Compound 87]
34 | > 10 | 0.1 to 1 | CNC(=O)N1CC(CNc2cc(C)nc(Nc3ccc(OC)c(-n4cc5c(n4)CCN(C)C5)c3)n2)C1 [Compound 88]
35 | > 10 | 1 to 10 | CNc1cc(C)nc(Nc2ccc(OC)c(-c3cc4cnccn4n3)c2)n1 [Compound 93]
36 | > 10 | 1 to 10 | CNc1cc(C)nc(Nc2ccc(OC)c(-n3cc(C)c(CNC(C)=O)n3)c2)n1 [Compound 94]
37 | > 10 | > 10 | CNc1cc(C)nc(Nc2ccc(OC)c(-n3ccc(CNC(C)=O)n3)c2)n1 [Compound 95]
38 | > 10 | > 10 | CNc1cc(C)nc(Nc2ccc(OC)c(-n3ccc(CN(C)C(C)=O)n3)c2)n1 [Compound 96]
39 | 1 to 10 | 1 to 10 | CNc1cc(C)nc(Nc2ccc(OC)c(-n3cc4c(C)nccc4n3)c2)n1 [Compound 99]
40 | 1 to 10 | > 10 | CNc1cc(C)nc(Nc2ccc(OC)c(-n3cc4c(OC)nccc4n3)c2)n1 [Compound 100]
41 | 1 to 10 | 0.1 to 1 | CNc1cc(C)nc(Nc2ccc(OC)c(-n3cc(C)c(CN(C)C)n3)c2)n1 [Compound 102]
42 | > 10 | > 10 | CNC(=O)c1cn(-c2cc(Nc3nc(C)cc(NC)n3)ccc2OC)nc1C [Compound 103]
43 | > 10 | 1 to 10 | CNC(=O)c1cnn(-c2cc(Nc3nc(C)cc(NC)n3)ccc2OC)c1 [Compound 104]
44 | > 10 | > 10 | CNC(=O)c1c(C)nn(-c2cc(Nc3nc(C)cc(NC)n3)ccc2OC)c1C [Compound 105]
45 | > 10 | > 10 | CNCc1c(C)nn(-c2cc(Nc3nc(C)cc(NC)n3)ccc2OC)c1C [Compound 106]
46 | < 0.1 | < 0.1 | CNc1cc(C)nc(Nc2ccc(OC)c(-n3cc(CN(C)C)cn3)c2)n1 [Compound 109, N2-(3-(4-((dimethylamino)methyl)-1H-pyrazol-1-yl)-4-methoxyphenyl)-N4,6-dimethylpyrimidine-2,4-diamine]
47 | 0.1 to 1 | < 0.1 | CNc1cc(C)nc(Nc2ccc(OC)c(-n3ncc4c3CCNC4)c2)n1 [Compound 113, N2-(4-methoxy-3-(4,5,6,7-tetrahydro-1H-pyrazolo[4,3-c]pyridin-1-yl)phenyl)-N4,6-dimethylpyrimidine-2,4-diamine]
48 | 1 to 10 | 1 to 10 | CNc1cc(C2CCOCC2)c2cc(OC)c(-n3cc(CN(C)C)nn3)cc2n1 [Compound 116]
49 | > 10 | > 10 | CNC(=O)c1cn(-c2cc(Nc3nc(C)cc(NC)n3)ccc2OC)nn1 [Compound 117]
50 | > 10 | 1 to 10 | CNc1cc(C)nc(Nc2ccc(OC)c(-n3ncc4ncccc43)c2)n1 [Compound 119]
